In US11208387B2, “Macrocyclic broad spectrum antibiotics” (Genentech, Inc., priority 2019, dated 2021):
≈ marks a conversion by molar mass, not a printed value. Where two headings read alike, the source gives them in different places.

Assays:
Assay in all cases: Serum MIC, broth micro-dilution
Format in all cases: cell-based
[1] = test system: Escherichia coli strain ATCC 25922; conditions: Escherichia coli, ATCC25922; 50% v/v mouse serum in Mueller Hinton II cation adjusted Broth, 35° C., 22 hours; Table 4; read-out: E. coli 25922 Serum MIC
In short: (§1)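 CLSI broth micro-dilution MIC run in 50% v/v cation-adjusted Mueller Hinton II broth plus 50% v/v mouse serum. Compounds were serially 2-fold diluted (10 concentrations) from a top concentration of 64, 4, 0.5 or 0.13 μg/mL; inoculum at final OD600 0.0005, incubated 35° C for 22 hours.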

[2] = test system: Pseudomonas aeruginosa PA01; conditions: Pseudomonas aeruginosa, PA01; 50% v/v mouse serum in Mueller Hinton II cation adjusted Broth, 35° C., 22 hours; Table 4; read-out: P. aeruginosa 01 Serum MIC
In short: as §1

[3] = test system: Acinetobacter baumannii ATCC 17978; conditions: Acinetobacter baumannii, ATCC17978, 50% v/v mouse serum in Mueller Hinton II cation adjusted Broth, 35° C., 22 hours
In short: as §1

[4] = test system: Klebsiella pneumoniae ATCC 700603; conditions: Klebsiella pneumoniae, ATCC700603; 50% v/v mouse serum in Mueller Hinton II cation adjusted Broth, 35° C., 22 hours; Table 4; read-out: K pneumoniae 700603 Serum MIC
In short: as §1

[5] = Table 4, read-out: A. baumanii 17978 Serum MIC
[6] = Table 5, read-out: Acinetobacter baumanii 17978 Serum MIC

Structure (SMILES) | MIC [1] | MIC [2] | MIC [3, 5] | MIC [3, 6] | MIC [4]
CCC(C)(C)c1ccc(-c2nc(C)c(C(=O)N[C@@H](CNS(N)(=O)=O)C(=O)N(C)[C@@H]3C(=O)N[C@@H](C)C(=O)N[C@H](C(=O)O)Cc4ccc(OC[C@H](O)CN)c(c4)-c4cc3cc(OC[C@H](O)CN)c4O)c(N)n2)c(F)c1 [Example 33, (8S,11S,14S)-14-[[(2S)-2-[[4-amino-2-[4-(1,1-dimethyl-propyl)-2-fluoro-phenyl]-6-methyl-pyrimidine-5-carbonyl]amino]-3-(sulfamoylamino)-propanoyl]-methyl-amino]-3,17-bis[(2R)-3-amino-2-hydroxy-propoxy]-18-hydroxy-11-methyl-10,13-dioxo-9,12-diazatricyclo-[13.3.1.12,6]icosa-1(18),2(20),3,5,15(19), 16-hexaene-8-carboxylic acid] | 1 µM (≈ 1.04 µg/mL) | 8 µM (≈ 8.32 µg/mL) | 48 µM (≈ 49.9 µg/mL) | 48 µM (≈ 49.9 µg/mL) | 1 µM (≈ 1.04 µg/mL)
Cc1nc(-c2ccc(CC3CC3)cc2)nc(N)c1C(=O)N[C@@H](CNS(N)(=O)=O)C(=O)N(C)[C@@H]1C(=O)N[C@@H](C)C(=O)N[C@H](C(=O)O)Cc2ccc(OC[C@H](O)CN)c(c2)-c2cc1cc(OC[C@H](O)CN)c2O [Example 34, (8S,11S,14S)-14-[[(2S)-2-[[4-amino-2-[4-(cyclopropyl-methyl)phenyl]-6-methyl-pyrimidine-5-carbonyl]amino]-3-(sulfamoylamino)-propanoyl]-methyl-amino]-3,17-bis[(2R)-3-amino-2-hydroxy-propoxy]-18-hydroxy-11-methyl-10,13-dioxo-9,12-diazatricyclo-[13.3.1.12,6]icosa-1(18),2(20),3,5,15(19), 16-hexaene-8-carboxylic acid] | 0.5 µM (≈ 0.503 µg/mL) | 12 µM (≈ 12.1 µg/mL) | 16 µM (≈ 16.1 µg/mL) | 16 µM (≈ 16.1 µg/mL) | 0.75 µM (≈ 0.755 µg/mL)
Cc1cc(-c2ccc(C(C)(C)C)cc2F)nc(N)c1C(=O)N[C@@H](CNS(N)(=O)=O)C(=O)N(C)[C@@H]1C(=O)N[C@@H](C)C(=O)N[C@H](C(=O)O)Cc2ccc(OC[C@H](O)CN)c(c2)-c2cc1cc(OC[C@H](O)CN)c2O [Example 35, (8S,11S,14S)-14-[[(2S)-2-[[2-amino-6-(4-tert-butyl-2-fluoro-phenyl)-4-methyl-pyridine-3-carbonyl]amino]-3-(sulfamoylamino)-propanoyl]-methyl-amino]-3,17-bis[(2R)-3-amino-2-hydroxy-propoxy]-18-hydroxy-11-methyl-10,13-dioxo-9,12-diazatricyclo-[13.3.1.12,6]icosa-1(18),2(20),3,5,15(19), 16-hexaene-8-carboxylic acid] | 0.5 µM (≈ 0.513 µg/mL) | 8 µM (≈ 8.2 µg/mL) | 16 µM (≈ 16.4 µg/mL) | 16 µM (≈ 16.4 µg/mL) | 0.5 µM (≈ 0.513 µg/mL)
CCCCc1ccc(-c2nc(C)c(C(=O)N[C@@H](CNS(N)(=O)=O)C(=O)N(C)[C@@H]3C(=O)N[C@@H](C)C(=O)N[C@H](C(=O)O)Cc4ccc(OC[C@H](O)CN)c(c4)-c4cc3cc(OC[C@H](O)CN)c4O)c(N)n2)cc1 [Example 36, (8S,11S,14S)-14-[[(2S)-2-[[4-amino-2-(4-butylphenyl)-6-methyl-pyrimidine-5-carbonyl]amino]-3-(sulfamoylamino)-propanoyl]-methyl-amino]-3,17-bis[(2R)-3-amino-2-hydroxy-propoxy]-18-hydroxy-11-methyl-10,13-dioxo-9,12-diazatri-cyclo[13.3.1.12,6]icosa-1(18),2(20),3,5,15(19), 16-hexaene-8-carboxylic acid] | 0.75 µM (≈ 0.756 µg/mL) | 16 µM (≈ 16.1 µg/mL) | 16 µM (≈ 16.1 µg/mL) | 16 µM (≈ 16.1 µg/mL) | 1 µM (≈ 1.01 µg/mL)
C[C@@H]1NC(=O)[C@@H](N(C)C(=O)[C@H](CNS(N)(=O)=O)NC(=O)c2c(N)cc(-c3ccc(C(C)(C)C)cc3)nc2Cl)c2cc(OC[C@H](O)CN)c(O)c(c2)-c2cc(ccc2OC[C@H](O)CN)C[C@@H](C(=O)O)NC1=O [Example 37, (8S,11S,14S)-14-[[(2S)-2-[[4-amino-6-(4-tert-butylphenyl)-2-chloro-pyridine-3-carbonyl]amino]-3-(sulfamoylamino)-propanoyl]-methyl-amino]-3,17-bis[(2R)-3-amino-2-hydroxy-propoxy]-18-hydroxy-11-methyl-10,13-dioxo-9,12-diazatri-cyclo[13.3.1.12,6]icosa-1(18),2(20),3,5,15(19), 16-hexaene-8-carboxylic acid] | 0.5 µM (≈ 0.514 µg/mL) | 4 µM (≈ 4.11 µg/mL) | 8 µM (≈ 8.22 µg/mL) | 8 µM (≈ 8.22 µg/mL) | 0.5 µM (≈ 0.514 µg/mL)
Cc1nc(-c2ccc(C(C)(C)C)cc2C#N)nc(N)c1C(=O)N[C@@H](CNS(N)(=O)=O)C(=O)N(C)[C@@H]1C(=O)N[C@@H](C)C(=O)N[C@H](C(=O)O)Cc2ccc(OC[C@H](O)CN)c(c2)-c2cc1cc(OC[C@H](O)CN)c2O [Example 39, (8S,11S,14S)-14-[[(2S)-2-[[4-amino-2-(4-tert-butyl-2-cyano-phenyl)-6-methyl-pyrimidine-5-carbonyl]amino]-3-(sulfamoylamino)-propanoyl]-methyl-amino]-3,17-bis[(2R)-3-amino-2-hydroxy-propoxy]-18-hydroxy-11-methyl-10,13-dioxo-9,12-diazatri-cyclo[13.3.1.12,6]icosa-1(18),2(20),3,5,15(19), 16-hexaene-8-carboxylic acid] | 1.5 µM (≈ 1.55 µg/mL) | 8 µM (≈ 8.27 µg/mL) | 24 µM (≈ 24.8 µg/mL) | 24 µM (≈ 24.8 µg/mL) | 2 µM (≈ 2.07 µg/mL)
C[C@@H]1NC(=O)[C@@H](N(C)C(=O)[C@H](CNS(N)(=O)=O)NC(=O)c2c(Cl)cc(-c3ccc(C(C)(C)C)cc3)nc2N)c2cc(OC[C@H](O)CN)c(O)c(c2)-c2cc(ccc2OC[C@H](O)CN)C[C@@H](C(=O)O)NC1=O [Example 40, (8S,11S,14S)-14-[[(2S)-2-[[2-amino-6-(4-tert-butylphenyl)-4-chloro-pyridine-3-carbonyl]amino]-3-(sulfamoylamino)-propanoyl]-methyl-amino]-3,17-bis[(2R)-3-amino-2-hydroxy-propoxy]-18-hydroxy-11-methyl-10,13-dioxo-9,12-diazatri-cyclo[13.3.1.12,6]icosa-1(18),2(20),3,5,15(19), 16-hexaene-8-carboxylic acid] | 0.75 µM (≈ 0.771 µg/mL) | 8 µM (≈ 8.22 µg/mL) | 16 µM (≈ 16.4 µg/mL) | 16 µM (≈ 16.4 µg/mL) | 0.5 µM (≈ 0.514 µg/mL)
Cc1nc(-c2ccc(C3CCC3)cc2)nc(N)c1C(=O)N[C@@H](CNS(N)(=O)=O)C(=O)N(C)[C@@H]1C(=O)N[C@@H](C)C(=O)N[C@H](C(=O)O)Cc2ccc(OC[C@H](O)CN)c(c2)-c2cc1cc(OC[C@H](O)CN)c2O [Example 41, (8S,11S,14S)-14-[[(2S)-2-[[4-amino-2-(4-cyclobutylphenyl)-6-methyl-pyrimidine-5-carbonyl]amino]-3-(sulfamoylamino)-propanoyl]-methyl-amino]-3,17-bis[(2R)-3-amino-2-hydroxy-propoxy]-18-hydroxy-11-methyl-10,13-dioxo-9,12-diazatri-cyclo[13.3.1.12,6]icosa-1(18),2(20),3,5,15(19), 16-hexaene-8-carboxylic acid] | 1 µM (≈ 1.01 µg/mL) | 16 µM (≈ 16.1 µg/mL) | 16 µM (≈ 16.1 µg/mL) | 16 µM (≈ 16.1 µg/mL) | 1 µM (≈ 1.01 µg/mL)
Cc1nc(-c2ccc(CC(C)(C)C)cc2)nc(N)c1C(=O)N[C@@H](CNS(N)(=O)=O)C(=O)N(C)[C@@H]1C(=O)N[C@@H](C)C(=O)N[C@H](C(=O)O)Cc2ccc(OC[C@H](O)CN)c(c2)-c2cc1cc(OC[C@H](O)CN)c2O [Example 42, (8S,11S,14S)-14-[[(2S)-2-[[4-amino-2-[4-(2,2-dimethyl-propyl)phenyl]-6-methyl-pyrimidine-5-carbonyl]amino]-3-(sulfamoylamino)-propanoyl]-methyl-amino]-3,17-bis[(2R)-3-amino-2-hydroxy-propoxy]-18-hydroxy-11-methyl-10,13-dioxo-9,12-diazatri-cyclo[13.3.1.12,6]icosa-1(18),2(20),3,5,15(19), 16-hexaene-8-carboxylic acid] | 0.5 µM (≈ 0.511 µg/mL) | 4 µM (≈ 4.09 µg/mL) | 8 µM (≈ 8.18 µg/mL) | 8 µM (≈ 8.18 µg/mL) | 0.75 µM (≈ 0.767 µg/mL)
CCC(C)(C)c1ccc(-c2nc(C)c(C(=O)N[C@@H](CNS(N)(=O)=O)C(=O)N(C)[C@@H]3C(=O)N[C@@H](C)C(=O)N[C@H](C(=O)O)Cc4ccc(OC[C@H](O)CN)c(c4)-c4cc3cc(OC[C@H](O)CN)c4O)c(N)n2)cc1 [Example 45, (8S,11S,14S)-14-[[(2S)-2-[[4-amino-2-[4-(1,1-dimethyl-propyl)phenyl]-6-methyl-pyrimidine-5-carbonyl]amino]-3-(sulfamoylamino)-propanoyl]-methyl-amino]-3,17-bis[(2R)-3-amino-2-hydroxy-propoxy]-18-hydroxy-11-methyl-10,13-dioxo-9,12-diazatri-cyclo[13.3.1.12,6]icosa-1(18),2(20),3,5,15(19), 16-hexaene-8-carboxylic acid] | 0.5 µM (≈ 0.511 µg/mL) | 3 µM (≈ 3.07 µg/mL) | 8 µM (≈ 8.18 µg/mL) | 8 µM (≈ 8.18 µg/mL) | 0.5 µM (≈ 0.511 µg/mL)
